Here are results for five molecules from patent US9708314B2, “Heterocyclic amide compound” (NISSAN CHEMICAL INDUSTRIES, LTD., priority 2013, dated 2017).

Holding throughout (format): in vivo
Data set [1] relates to Echinochloa oryzacola Vasing. In words: Test Example 2: herbicidal activity, application during weed generation in submerged conditions. The note with it: Eighteenth Table; application herbicide amount 320 g/ha. The text has this: (§1) 5 Herbicidal ratio of 90% or more (almost completely withered) 4 Herbicidal ratio of 70% or more and less than 90% 3 Herbicidal ratio of 40% or more and less than 70% 2 Herbicidal ratio of 20% or more and less than 40% 1 Herbicidal ratio of 5% or more and less than 20% 0 Herbicidal ratio of 5% or less (almost no effect) [Test Example 2] Herbicidal Activity Test by Application During Weed Generation in Submerged Conditions After alluvial soil was placed into 1/10000 are of Wagner pot, water was poured and mixed to form a submerged condition having a water depth of 4 cm. Seeds of Echinochloa oryzacola Vasing., Scirpus juncoides, and Monochoria vaginalis were sowed in a mixed manner in the above pot and the pot was placed in the greenhouse of 25° C. to 30° C. to grow the plants. When Echinochloa oryzacola Vasing., Scirpus juncoides, and Monochoria vaginalis were grown to one leaf stage to two leaf stage, the emulsion agent containing the compound of the present invention prepared in accordance with Formulation Example 2 was diluted with water so as to be a predetermined herbicide amount and the diluted compound was applied to the surface of the water. Three weeks after the herbicide application, effects on each plant were investigated in accordance with the criteria of Test Example 1. A: Echinochloa oryzicola Vasing., B: Scirpus juncoides, C: Monochoria vaginalis, D: Leptochloa chinensis, E: Cyperus difformis, F: Digitaria ciliaris, G: Setaria viridis, H: Echinochloa crus-galli var. crus-galli, I: Avena fatua, J: Alopecurus myosuroides, K: Lolium multiflorum Lam., L: Apera spica-venti., M: Abutilon theophrasti, N: Amaranthus retroflexus, O: Chenopodium album, P: Stellaria media, Q: Galium spurium, R: Veronica persica, a: transplanted Oryza sativa, b: directly sowed Oryza sativa, c: Zea mays, d: Glycine max, e: Triticum aestivum, f: Beta vulgaris ssp. vulgaris, and g: Brassica campestris L. The application herbicide amount (g/ha) means an amount that a concentration is adjusted so that, when an application amount is converted into per hectare (1 ha), the herbicide is applied by the number of grams (g) of the described value.

The test system of the next data set is Monochoria vaginalis. The description is as above. As to conditions: Eighteenth Table; application herbicide amount 320 g/ha.
Description: as §1

The subject of the next data set is Scirpus juncoides. Described as above. The note with it: Eighteenth Table; application herbicide amount 320 g/ha.
Description: as §1

The subject of a further data set is Cyperus difformis. In words: Test Example 3: herbicidal effect by application to foliage (Wagner pot, water depth 0.1-0.5 cm). The note with it: Nineteenth Table; application to foliage; application herbicide amount 320 g/ha. The procedure, abridged: (§2)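 Visual 0–5 rating of herbicidal ratio, taken 3 weeks after foliar spray of a diluted emulsion formulation at rates expressed as g/ha. Plants had been sown in alluvial soil under 0.1–0.5 cm water and grown 14 days at 25–30 °C under glass before application.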

Data set [2] relates to Echinochloa crus-galli var. crus-galli. The data set is described as above. As to conditions: Nineteenth Table; application to foliage; application herbicide amount 320 g/ha. The procedure, abridged:
as §2

The subject of the next data set is Leptochloa chinensis. The description is as above. As to conditions: Nineteenth Table; application to foliage; application herbicide amount 320 g/ha. The procedure, abridged: as §2
The test system of data set [3] is directly sowed Oryza sativa. In words: Test Example 3: effect on crop by application to foliage (Wagner pot, water depth 0.1-0.5 cm). As to conditions: Nineteenth Table; application to foliage; application herbicide amount 320 g/ha. The procedure, abridged:
as §2

On to `CSC(C)c1nnc2c(C(=O)Nc3nnc(C)o3)ccc(C(F)(F)F)n12` (centres unmarked) [1-078], for which, in data set [1], the “A (Echinochloa oryzicola Vasing.) herbicidal ratio grade” value was 4 (Herbicidal ratio of 70% or more and less than 90%). Besides, the “C (Monochoria vaginalis) herbicidal ratio grade” value in the data set on Monochoria vaginalis was 3 (Herbicidal ratio of 40% or more and less than 70%). Besides, the “B (Scirpus juncoides) herbicidal ratio grade” value with Scirpus juncoides was 3 (Herbicidal ratio of 40% or more and less than 70%). Also, the “E (herbicidal effect grade)” value in the data set with Cyperus difformis is listed as 5 (Herbicidal ratio of 90% or more (almost completely withered)). In data set [2], the “H (herbicidal effect grade)” value is reported as 5 (Herbicidal ratio of 90% or more (almost completely withered)). In the data set with Leptochloa chinensis, the “D (herbicidal effect grade)” value is reported as 5 (Herbicidal ratio of 90% or more (almost completely withered)). In addition, in data set [3], the “b (effect on crop grade)” value is 5 (Herbicidal ratio of 90% or more (almost completely withered)).
Regarding `Cc1nnc(NC(=O)c2ccc(C(F)(F)F)n3c(N(C)c4ccccc4)nnc23)o1` [1-086], in data set [1], the “A (Echinochloa oryzicola Vasing.) herbicidal ratio grade” value is 4 (Herbicidal ratio of 70% or more and less than 90%). In the data set on Monochoria vaginalis, the “C (Monochoria vaginalis) herbicidal ratio grade” value was 4 (Herbicidal ratio of 70% or more and less than 90%). For the same molecule, the “B (Scirpus juncoides) herbicidal ratio grade” value in the data set with Scirpus juncoides was 4 (Herbicidal ratio of 70% or more and less than 90%). The “E (herbicidal effect grade)” value with Cyperus difformis was 5 (Herbicidal ratio of 90% or more (almost completely withered)). Moreover, in data set [2], the “H (herbicidal effect grade)” value is 5 (Herbicidal ratio of 90% or more (almost completely withered)). The “D (herbicidal effect grade)” value in the data set on Leptochloa chinensis is on record as 5 (Herbicidal ratio of 90% or more (almost completely withered)). Further, the “b (effect on crop grade)” value in data set [3] was 0 (Herbicidal ratio of 5% or less (almost no effect)).
Regarding `Cc1nnc(NC(=O)c2ccc(C(F)(F)F)n3c(SCC(C)C)nnc23)o1` [1-093], the “A (Echinochloa oryzicola Vasing.) herbicidal ratio grade” value in data set [1] is 3 (Herbicidal ratio of 40% or more and less than 70%). Also, the “C (Monochoria vaginalis) herbicidal ratio grade” value with Monochoria vaginalis was 3 (Herbicidal ratio of 40% or more and less than 70%). Also, the “B (Scirpus juncoides) herbicidal ratio grade” value with Scirpus juncoides was 3 (Herbicidal ratio of 40% or more and less than 70%). In the data set with Cyperus difformis, the “E (herbicidal effect grade)” value was 4 (Herbicidal ratio of 70% or more and less than 90%). For the same molecule, the “H (herbicidal effect grade)” value in data set [2] is 4 (Herbicidal ratio of 70% or more and less than 90%). In addition, the “D (herbicidal effect grade)” value in the data set on Leptochloa chinensis is 5 (Herbicidal ratio of 90% or more (almost completely withered)). In addition, the “b (effect on crop grade)” value in data set [3] is 1 (Herbicidal ratio of 5% or more and less than 20%).
`Cc1nnc(NC(=O)c2ccc(C(F)(F)F)n3c(-c4cccc(Cl)n4)nnc23)o1` [1-055]: the “A (Echinochloa oryzicola Vasing.) herbicidal ratio grade” value in data set [1] is 3 (Herbicidal ratio of 40% or more and less than 70%). The “C (Monochoria vaginalis) herbicidal ratio grade” value in the data set on Monochoria vaginalis is 3 (Herbicidal ratio of 40% or more and less than 70%). Moreover, the “B (Scirpus juncoides) herbicidal ratio grade” value in the data set on Scirpus juncoides was 3 (Herbicidal ratio of 40% or more and less than 70%). Also, in the data set on Cyperus difformis, the “E (herbicidal effect grade)” value is 5 (Herbicidal ratio of 90% or more (almost completely withered)). Also, the “H (herbicidal effect grade)” value in data set [2] was 5 (Herbicidal ratio of 90% or more (almost completely withered)). Besides, the “D (herbicidal effect grade)” value in the data set with Leptochloa chinensis is 4 (Herbicidal ratio of 70% or more and less than 90%). The “b (effect on crop grade)” value in data set [3] was 2 (Herbicidal ratio of 20% or more and less than 40%).
For the molecule `CC(C)Sc1nnc2c(C(=O)Nc3nnco3)ccc(C(F)(F)F)n12` [1-091], the “A (Echinochloa oryzicola Vasing.) herbicidal ratio grade” value in data set [1] was 5 (Herbicidal ratio of 90% or more (almost completely withered)). Further, the “C (Monochoria vaginalis) herbicidal ratio grade” value in the data set with Monochoria vaginalis is given as 5 (Herbicidal ratio of 90% or more (almost completely withered)). Also, the “B (Scirpus juncoides) herbicidal ratio grade” value with Scirpus juncoides is 5 (Herbicidal ratio of 90% or more (almost completely withered)). The “E (herbicidal effect grade)” value with Cyperus difformis is 5 (Herbicidal ratio of 90% or more (almost completely withered)). The “H (herbicidal effect grade)” value in data set [2] is reported as 5 (Herbicidal ratio of 90% or more (almost completely withered)). Further, in the data set on Leptochloa chinensis, the “D (herbicidal effect grade)” value is on record as 5 (Herbicidal ratio of 90% or more (almost completely withered)). In addition, the “b (effect on crop grade)” value in data set [3] is recorded as 0 (Herbicidal ratio of 5% or less (almost no effect)).
